In US7414043B2, “9-α-substituted estratrienes as selectively active estrogens” (priority 2002, dated 2008):
Like-named read-outs stand apart in the source and are kept apart here.

Experiments:
[1] = test system: estrogen receptor preparations from rat prostates; assay: Competitive 3H-estradiol binding, rat prostate cytosol; conditions: for RBA Rat Prostate: Table 2, 3H-estradiol as ligand; for binding affinity to estrogen receptor of rat prostates compared with rat uteri: qualitative comparison prostate ER versus uterus ER
[2] = test system: estrogen receptor preparations from rat uteri; assay: Competitive 3H-estradiol binding, rat uterus cytosol; conditions: for RBA Rat Uterus: Table 2, 3H-estradiol as ligand
hERβ [3] = conditions: cited from earlier work
hERβ [4] = assay: Relative binding affinity to hERβ (Kuiper et al.); set-up: species or system human; conditions: quotient of RBA hERβ / hERα
Text: In this case, it is assumed that ERβ predominates in the rat prostates over ERα, and ERα predominates in rat uteri over ERβ.

[5] = test system: GnRH antagonist-treated animals; assay: Ovary study, ovary weight in GnRH antagonist (Cetrorelix)-treated juvenile rats; type: in vivo, rat
Method: (§1) The substances were tested in vivo on hypophysectomized juvenile rats. In a modification of this operative method, a GnRH antagonist is administered to the animals. It is examined whether the substance stimulates follicular proliferation (maturation) in the ovary. The ovary weight is the measurement parameter.
(§2) In each case, five animals (body weight 40-50 g) are assigned randomly to the treatment groups. The animals are fed as much as they want with a standard diet (altromin) in Makrolon cages in air-conditioned rooms with a lighting program (10 hours of darkness, 14 hours of light) and are given acidified tap water to drink.
(§3) In both cases, the animals are sacrificed 24 hours after the last administration, and the ovary weight is determined.

adult female rats = assay: Dissociation of action ovary/uterus and pituitary gland: ovulation and uterus weight; type: in vivo, rat
Method: The studies with respect to the action on uterus growth and ovulation (indirect effect by influencing the secretion of pituitary gland hormones) are performed on adult female rats (body weight of 220-250 g). The substances are subcutaneously administered four times on four consecutive days. The first administration is carried out in the metestrus. One day after the last administration, the autopsy is carried out. The number of ovocytes in the tube (effect on the ovulation) as well as the uterus weight are determined.

[6] = test system: hypophysectomized juvenile rats; assay: Ovary study, ovary weight in hypophysectomized juvenile rats; type: in vivo, rat; conditions: 0.5 mg/animal/day s.c. over 4 days, compared with estradiol 0.1 mg/animal/day
Method: as §1, §2, §3

[7] = Table 1, 3H-estradiol as ligand, estradiol = 100

Compound | RBA Rat Prostate [1] | binding affinity to estrogen receptor of rat prostates compared with rat uteri [1] | RBA Rat Uterus [2] | further results
9α-(2′,2′-Difluorovinyl)-18a-homo-estra-1,3,5(10)-triene-3,16α-diol [Compound 5] | 6 | higher binding affinity to the estrogen receptor of rat prostates | 0.2 | 
C[C@]12CC[C@]3(C=C(F)F)c4ccc(O)cc4CC[C@H]3[C@@H]1C[C@@H](O)C2 [Compound 4, 9α-(2′,2′-Difluorovinyl)-estra-1,3,5(10)-triene-3,16α-diol] | 4 | higher binding affinity to the estrogen receptor of rat prostates | 0.2 | 
C[C@]12CC[C@@H]3c4ccc(O)cc4CC[C@H]3[C@@H]1C[C@@H](O)[C@@H]2O [Estriol] |  |  |  | hERβ RBA* (hERβ [3]; relative binding affinity, estradiol = 100, cited from Kuiper et al.): 21
C[C@]12CCC(O)CC1=CC[C@@H]1[C@@H]2CC[C@]2(C)C(O)CC[C@@H]12 (some centres unmarked) [5-Androstene-diol, reference compound] |  |  |  | Rat prost. ER(RBA) [1, 7]: 5; prost. ER/uterus ER ([1]; ratio of RBA rat prostate ER / rat uterus ER): 50; hERβ RBA* (hERβ [3]): 17; ERβ/ERα (hERβ [4]): 3; Rat uterus ER(RBA) [2, 7]: 0.1
C=C[C@]12CC[C@]3(C)[C@@H](F)[C@H](O)C[C@H]3[C@@H]1CCc1cc(O)ccc12 [Compound 2, 17β-Fluoro-9α-vinyl-estra-1,3,5(10)-triene-3,16α-diol] | 200 | higher binding affinity to the estrogen receptor of rat prostates | 2 | action on ovary weight (FIG. 1) ([5]; GnRH antagonist-treated animals, 0.1 and 0.3 mg/animal/day, compared with estradiol 1 mg/animal/day): same action as the dose of 1 mg/animal/day of estradiol; action on ovary weight, low dosages (FIG. 2) ([5]; combination with Cetrorelix, 0.01, 0.03 mg/animal/day): show an ovary action and can eliminate the antagonistic effect of Cetrorelix
C[C@]12CC[C@@H]3c4ccc(O)cc4CC[C@H]3[C@@H]1CC[C@@H]2O [Estradiol, reference compound] |  |  |  | ED50 of ovulation inhibition and increase in uterus weight (adult female rats; s.c. four times on four consecutive days): 0.004 mg/kg of body weight
C=C[C@]12CC[C@]3(C)C[C@H](O)C[C@H]3[C@@H]1CCc1cc(O)ccc12 [Compound 1, 9α-Vinylestra-1,3,5(10)-triene-3,16α-diol] | 100 | higher binding affinity to the estrogen receptor of rat prostates | 1.2 | increase in ovary weight [6]: comparable increase in ovary weight; effect on ovulation and uterus weight (adult female rats; s.c. on four days, up to a dose of 0.4 mg/kg of body weight): does not exert any effect
